Results as given in patent US20230085307A1, “PYRIDAZINONE COMPOUND AND HERBICIDE” (NISSAN CHEMICAL CORPORATION, priority 2019, published 2023).

Key:
[1] = test system: blackgrass; assay: Test Example 4: herbicidal effect by soil treatment (Table 19, symbol J); type: in vivo, blackgrass (Alopecurus myosuroides); settings: amount of applied herbicide 320 g/ha
Outline: (§1)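 Herbicidal effect was rated 3 weeks after treatment, using the scoring criteria of an earlier test. The compound, formulated as an emulsion and diluted in water to a set herbicide amount, had been sprayed uniformly on soil over freshly sown seeds. Growth took place in a greenhouse at 25° C. to 30° C.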

[2] = test system: wild oat; assay: Test Example 5: herbicidal effect by foliage application, plastic box (Table 20, symbol I); type: in vivo, wild oat (Avena fatua); settings: foliage application, 320 g/ha, evaluated three weeks after application
Outline: (§2)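 Foliar spray test: emulsion formulation diluted in water to a set application rate, sprayed onto 14-day-old plants raised in diluvial soil at 25° C to 30° C under glass. Both herbicidal effect and crop effect rated visually three weeks later.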

[3] = test system: green foxtail; assay: Test Example 5: herbicidal effect by foliage application, plastic box (Table 20, symbol G); type: in vivo, green foxtail (Setaria viridis); settings: foliage application, 320 g/ha, evaluated three weeks after application
Outline: as §2

[4] = test system: windgrass; assay: Test Example 5: herbicidal effect by foliage application, plastic box (Table 20, symbol L); type: in vivo, windgrass (Apera spica-venti); settings: foliage application, 320 g/ha, evaluated three weeks after application
Outline: as §2

[5] = test system: barnyard grass; assay: Test Example 4: herbicidal effect by soil treatment (Table 19, symbol H); type: in vivo, barnyard grass (Echinochloa crus-galli); settings: amount of applied herbicide 320 g/ha
Outline: as §1

[6] = test system: persian speedwell; assay: Test Example 5: herbicidal effect by foliage application, plastic box (Table 20, symbol R); type: in vivo, Persian speedwell (Veronica persica); settings: foliage application, 320 g/ha, evaluated three weeks after application
Outline: as §2

[7] = test system: lambsquarters; assay: Test Example 5: herbicidal effect by foliage application, plastic box (Table 20, symbol O); type: in vivo, lambsquarters (Chenopodium album); settings: foliage application, 320 g/ha, evaluated three weeks after application
Outline: as §2

[8] = test system: redroot pigweed; assay: Test Example 4: herbicidal effect by soil treatment (Table 19, symbol N); type: in vivo, redroot pigweed (Amaranthus retroflexus); settings: amount of applied herbicide 320 g/ha
Outline: as §1

[9] = test system: windgrass; assay: Test Example 4: herbicidal effect by soil treatment (Table 19, symbol L); type: in vivo, windgrass (Apera spica-venti); settings: amount of applied herbicide 320 g/ha
Outline: as §1

[10] = test system: chickweed; assay: Test Example 4: herbicidal effect by soil treatment (Table 19, symbol P); type: in vivo, common chickweed (Stellaria media); settings: amount of applied herbicide 320 g/ha
Outline: as §1

[11] = test system: chickweed; assay: Test Example 5: herbicidal effect by foliage application, plastic box (Table 20, symbol P); type: in vivo, common chickweed (Stellaria media); settings: foliage application, 320 g/ha, evaluated three weeks after application
Outline: as §2

[12] = test system: redroot pigweed; assay: Test Example 5: herbicidal effect by foliage application, plastic box (Table 20, symbol N); type: in vivo, redroot pigweed (Amaranthus retroflexus); settings: foliage application, 320 g/ha, evaluated three weeks after application
Outline: as §2

[13] = test system: blackgrass; assay: Test Example 5: herbicidal effect by foliage application, plastic box (Table 20, symbol J); type: in vivo, blackgrass (Alopecurus myosuroides); settings: foliage application, 320 g/ha, evaluated three weeks after application
Outline: as §2

[14] = test system: barnyard grass; assay: Test Example 5: herbicidal effect by foliage application, plastic box (Table 20, symbol H); type: in vivo, barnyard grass (Echinochloa crus-galli); settings: foliage application, 320 g/ha, evaluated three weeks after application
Outline: as §2

[15] = test system: velvetleaf; assay: Test Example 5: herbicidal effect by foliage application, plastic box (Table 20, symbol M); type: in vivo, velvetleaf (Abutilon theophrasti); settings: foliage application, 320 g/ha, evaluated three weeks after application
Outline: as §2

[16] = test system: southern crabgrass; assay: Test Example 4: herbicidal effect by soil treatment (Table 19, symbol F); type: in vivo, southern crabgrass (Digitaria ciliaris); settings: amount of applied herbicide 320 g/ha
Outline: as §1

[17] = test system: wild oat; assay: Test Example 4: herbicidal effect by soil treatment (Table 19, symbol I); type: in vivo, wild oat (Avena fatua); settings: amount of applied herbicide 320 g/ha
Outline: as §1

[18] = test system: green foxtail; assay: Test Example 4: herbicidal effect by soil treatment (Table 19, symbol G); type: in vivo, green foxtail (Setaria viridis); settings: amount of applied herbicide 320 g/ha
Outline: as §1

[19] = test system: southern crabgrass; assay: Test Example 5: herbicidal effect by foliage application, plastic box (Table 20, symbol F); type: in vivo, southern crabgrass (Digitaria ciliaris); settings: foliage application, 320 g/ha, evaluated three weeks after application
Outline: as §2

[20] = test system: velvetleaf; assay: Test Example 4: herbicidal effect by soil treatment (Table 19, symbol M); type: in vivo, velvetleaf (Abutilon theophrasti); settings: amount of applied herbicide 320 g/ha
Outline: as §1

[21] = test system: lambsquarters; assay: Test Example 4: herbicidal effect by soil treatment (Table 19, symbol O); type: in vivo, lambsquarters (Chenopodium album); settings: amount of applied herbicide 320 g/ha
Outline: as §1

[22] = test system: barnyard grass; assay: Test Example 3: herbicidal effect by foliage application, Wagner pot (Table 18, symbol H); type: in vivo, barnyard grass (Echinochloa crus-galli); settings: amount of applied herbicide 320 g/ha
Outline: (§3)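 Plants were sown in alluvial soil held under 0.1–0.5 cm standing water and grown 14 days in a greenhouse at 25–30 °C. An emulsifiable formulation, water-diluted to the set dose, was then sprayed onto the foliage, and effects were scored three weeks later using previously defined criteria.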

[23] = test system: Chinese sprangletop; assay: Test Example 3: herbicidal effect by foliage application, Wagner pot (Table 18, symbol D); type: in vivo, chinese sprangletop (Leptochloa chinensis); settings: amount of applied herbicide 320 g/ha
Outline: as §3

[24] = test system: rice flat sedge; assay: Test Example 3: herbicidal effect by foliage application, Wagner pot (Table 18, symbol E); type: in vivo, rice flat sedge (Cyperus iria); settings: amount of applied herbicide 320 g/ha
Outline: as §3

[25] = test system: persian speedwell; assay: Test Example 4: herbicidal effect by soil treatment (Table 19, symbol R); type: in vivo, Persian speedwell (Veronica persica); settings: amount of applied herbicide 320 g/ha
Outline: as §1

[26] = test system: Italian ryegrass; assay: Test Example 4: herbicidal effect by soil treatment (Table 19, symbol K); type: in vivo, Italian ryegrass (Lolium multiflorum); settings: amount of applied herbicide 320 g/ha
Outline: as §1

[27] = test system: Italian ryegrass; assay: Test Example 5: herbicidal effect by foliage application, plastic box (Table 20, symbol K); type: in vivo, Italian ryegrass (Lolium multiflorum); settings: foliage application, 320 g/ha, evaluated three weeks after application
Outline: as §2

Structure (SMILES) | J: blackgrass, herbicidal effect rating [1] | herbicidal effect on I: wild oat [2] | herbicidal effect on G: green foxtail [3] | herbicidal effect on L: windgrass [4] | H: barnyard grass, herbicidal effect rating [5] | herbicidal effect on R: persian speedwell [6] | herbicidal effect on O: lambsquarters [7] | N: redroot pigweed, herbicidal effect rating [8] | L: windgrass, herbicidal effect rating [9] | P: chickweed, herbicidal effect rating [10] | F: southern crabgrass, herbicidal effect rating [16] | I: wild oat, herbicidal effect rating [17] | G: green foxtail, herbicidal effect rating [18] | M: velvetleaf, herbicidal effect rating [20] | O: lambsquarters, herbicidal effect rating [21] | herbicidal effect on H: barnyard grass [22] | herbicidal effect on D: Chinese sprangletop [23] | herbicidal effect on E: rice flat sedge [24] | R: persian speedwell, herbicidal effect rating [25] | K: Italian ryegrass, herbicidal effect rating [26] | other results
Cc1ccc(-c2sc3ccc(C)cc3c2-c2c(O)c(C)nn(C)c2=O)cc1 [2-136] | 0 (Herbicidal rate of 5% or less (almost no effect)) | 0 (Herbicidal rate of 5% or less (almost no effect)) | 0 (Herbicidal rate of 5% or less (almost no effect)) | 0 (Herbicidal rate of 5% or less (almost no effect)) | 0 (Herbicidal rate of 5% or less (almost no effect)) | 5 (Herbicidal rate of 90% or more (almost completely withered)) | 4 (Herbicidal rate of 70% or more and less than 90%) | 5 (Herbicidal rate of 90% or more (almost completely withered)) | 0 (Herbicidal rate of 5% or less (almost no effect)) | 4 (Herbicidal rate of 70% or more and less than 90%) | 3 (Herbicidal rate of 40% or more and less than 70%) | 0 (Herbicidal rate of 5% or less (almost no effect)) | 0 (Herbicidal rate of 5% or less (almost no effect)) | 0 (Herbicidal rate of 5% or less (almost no effect)) | 5 (Herbicidal rate of 90% or more (almost completely withered)) | 2 (Herbicidal rate of 20% or more and less than 40%) | 0 (Herbicidal rate of 5% or less (almost no effect)) | 5 (Herbicidal rate of 90% or more (almost completely withered)) | 5 (Herbicidal rate of 90% or more (almost completely withered)) | 3 (Herbicidal rate of 40% or more and less than 70%) | herbicidal effect on P: chickweed [11]: 5 (Herbicidal rate of 90% or more (almost completely withered)); herbicidal effect on N: redroot pigweed [12]: 5 (Herbicidal rate of 90% or more (almost completely withered)); herbicidal effect on J: blackgrass [13]: 0 (Herbicidal rate of 5% or less (almost no effect)); herbicidal effect on H: barnyard grass [14]: 0 (Herbicidal rate of 5% or less (almost no effect)); herbicidal effect on M: velvetleaf [15]: 5 (Herbicidal rate of 90% or more (almost completely withered)); herbicidal effect on F: southern crabgrass [19]: 0 (Herbicidal rate of 5% or less (almost no effect)); herbicidal effect on K: Italian ryegrass [27]: 5 (Herbicidal rate of 90% or more (almost completely withered))
CCCC(=O)Oc1c(C)nn(C)c(=O)c1-c1c(-c2ccc(C)cc2)sc2ccc(C)cc12 [2-137] | 0 (Herbicidal rate of 5% or less (almost no effect)) | 0 (Herbicidal rate of 5% or less (almost no effect)) | 3 (Herbicidal rate of 40% or more and less than 70%) | 0 (Herbicidal rate of 5% or less (almost no effect)) | 0 (Herbicidal rate of 5% or less (almost no effect)) | 5 (Herbicidal rate of 90% or more (almost completely withered)) | 2 (Herbicidal rate of 20% or more and less than 40%) | 0 (Herbicidal rate of 5% or less (almost no effect)) | 0 (Herbicidal rate of 5% or less (almost no effect)) | 4 (Herbicidal rate of 70% or more and less than 90%) | 0 (Herbicidal rate of 5% or less (almost no effect)) | 0 (Herbicidal rate of 5% or less (almost no effect)) | 0 (Herbicidal rate of 5% or less (almost no effect)) | 0 (Herbicidal rate of 5% or less (almost no effect)) | 0 (Herbicidal rate of 5% or less (almost no effect)) | 1 (Herbicidal rate of 5% or more and less than 20%) | 1 (Herbicidal rate of 5% or more and less than 20%) | 5 (Herbicidal rate of 90% or more (almost completely withered)) | 1 (Herbicidal rate of 5% or more and less than 20%) | 2 (Herbicidal rate of 20% or more and less than 40%) | herbicidal effect on P: chickweed [11]: 5 (Herbicidal rate of 90% or more (almost completely withered)); herbicidal effect on N: redroot pigweed [12]: 4 (Herbicidal rate of 70% or more and less than 90%); herbicidal effect on J: blackgrass [13]: 0 (Herbicidal rate of 5% or less (almost no effect)); herbicidal effect on H: barnyard grass [14]: 0 (Herbicidal rate of 5% or less (almost no effect)); herbicidal effect on M: velvetleaf [15]: 4 (Herbicidal rate of 70% or more and less than 90%); herbicidal effect on F: southern crabgrass [19]: 0 (Herbicidal rate of 5% or less (almost no effect)); herbicidal effect on K: Italian ryegrass [27]: 4 (Herbicidal rate of 70% or more and less than 90%)
Cc1ccc2sc(-c3ccc4c(c3)OCO4)c(-c3c(O)c(C)nn(C)c3=O)c2c1 [2-156] | 0 (Herbicidal rate of 5% or less (almost no effect)) | – | – | – | 0 (Herbicidal rate of 5% or less (almost no effect)) | – | – | 2 (Herbicidal rate of 20% or more and less than 40%) | 0 (Herbicidal rate of 5% or less (almost no effect)) | 4 (Herbicidal rate of 70% or more and less than 90%) | 0 (Herbicidal rate of 5% or less (almost no effect)) | 0 (Herbicidal rate of 5% or less (almost no effect)) | 0 (Herbicidal rate of 5% or less (almost no effect)) | 0 (Herbicidal rate of 5% or less (almost no effect)) | 3 (Herbicidal rate of 40% or more and less than 70%) | 3 (Herbicidal rate of 40% or more and less than 70%) | 0 (Herbicidal rate of 5% or less (almost no effect)) | 4 (Herbicidal rate of 70% or more and less than 90%) | 4 (Herbicidal rate of 70% or more and less than 90%) | 0 (Herbicidal rate of 5% or less (almost no effect)) | herbicidal effect on I: wild oat (criteria 0-5) [2]: 0 (Herbicidal rate of 5% or less (almost no effect)); herbicidal effect on G: green foxtail (criteria 0-5) [3]: 0 (Herbicidal rate of 5% or less (almost no effect)); herbicidal effect on L: windgrass (criteria 0-5) [4]: 0 (Herbicidal rate of 5% or less (almost no effect)); herbicidal effect on R: persian speedwell (criteria 0-5) [6]: 5 (Herbicidal rate of 90% or more (almost completely withered)); herbicidal effect on O: lambsquarters (criteria 0-5) [7]: 0 (Herbicidal rate of 5% or less (almost no effect)); herbicidal effect on P: chickweed (criteria 0-5) [11]: 5 (Herbicidal rate of 90% or more (almost completely withered)); herbicidal effect on N: redroot pigweed (criteria 0-5) [12]: 3 (Herbicidal rate of 40% or more and less than 70%); herbicidal effect on J: blackgrass (criteria 0-5) [13]: 0 (Herbicidal rate of 5% or less (almost no effect)); herbicidal effect on H: barnyard grass (criteria 0-5) [14]: 0 (Herbicidal rate of 5% or less (almost no effect)); herbicidal effect on M: velvetleaf (criteria 0-5) [15]: 4 (Herbicidal rate of 70% or more and less than 90%); herbicidal effect on F: southern crabgrass (criteria 0-5) [19]: 0 (Herbicidal rate of 5% or less (almost no effect)); herbicidal effect on K: Italian ryegrass (criteria 0-5) [27]: 1 (Herbicidal rate of 5% or more and less than 20%)
